Results published in patent US9340574B2, “Inhibitors of protein tyrosine phosphatases” (Indiana University Research and Technology Corporation, priority 2012, dated 2016).

Assays:
PTP-MEG2 = PTP-MEG2 (Homo sapiens (Human), UniProt P43378); assay: pNPP hydrolysis enzyme assay, PTP-MEG2; type: biochemical; settings: for IC50: pNPP substrate, pH 7.0, 25° C., read-out: IC50 for PTP-MEG2
Description: (§1) Enzyme kinetic assay. PTP activity was assayed using p-nitrophenyl phosphate (pNPP) as a substrate in 3,3-dimethylglutarate buffer (50 mM 3,3-dimethylglutarate, pH 7.0, 1 mM EDTA, 150 mM NaCl, 2 mM DTT, 0.1 mg/mL BSA) at 25° C. The assays were performed in 96-well plates. Normally, to determine the IC50 values, the reaction was initiated by the addition of enzyme (final concentration at 10 nM) to a reaction mixture (0.2 mL) containing 2 mM (Km for the substrate) pNPP with various concentrations of inhibitors. The reaction rate was measured using a SpectraMax Plus 384 Microplate Spectrophotometer (Molecular Devices). To determine the mode of inhibition, the reactions were initiated by the addition of PTP-MEG2 to the reaction mixtures (0.2 mL) containing various concentrations of pNPP with different concentrations of the inhibitor 7. Data were fitted using SigmaPlot Enzyme Kinetics Module (Systat Software, Inc.).
PTP-MEG2 Overexpression, and Purification. The expression vector containing residues 277-582 of PTP-MEG2 catalytic domain was provided by Stefan Knapp at the University of Oxford. For protein expression, transformed cells were grown at 37° C. in Luria broth (LB) containing […] ampicillin for 4 h to an OD600 nm @0.6, and then induced for overnight at 18° C. with 0.4 mM IPTG. Cells were harvested by centrifugation (6500 rpm for 15 min at 4° C.), and the cell pellets from 1.5 L LB medium were suspended in 30 mL of ice-cold lysis buffer consisting of 5 mM imidazole, 500 mM NaCl, 20 mM Tris-HCl (pH 7.9), 0.05 mg/mL trypsin inhibitor and 0.1 mM PMSF. The suspensions were passed twice through a French Press at 1200 psi, and the cell lysates were centrifuged at 4° C. for 30 min at 16,000 rpm. The supernatants were mixed with 2 mL Ni-NTA Agarose (His*Bind Resin) (Qiagen) at 4° C. for 1 hour, then transferred mixture to an empty column. The column was washed by 200 mL binding buffer (5 mM imidazole, 500 mM NaCl, 20 mM Tris-HCl (pH 7.9)), followed by 20 mL wash buffer (20 mM imidazole, 500 mM NaCl, 20 mM Tris-HCl (pH 7.9)), and then eluted with 20 mL elution buffer (200 mM imidazole, 500 mM NaCl, 20 mM Tris-HCl (pH 7.9), 5 mM DTT). The elution was dialyzed for 6 h at 4° C. against 1 L buffer A (50 mM NaCl, 20 mM MES (pH6.0), 1 mM EDTA), and then loaded onto a Mono S column equilibrated at 4° C. with buffer A. The column was washed with 10 ml buffer A and then eluted with a 40 mL linear gradient of 0 to 1M NaCl in buffer A. The PTP-MEG2 was eluted at 0.35 M NaCl. The column fractions were analyzed by measuring the absorbance at 280 nm and by carrying out SDS-PAGE analysis. The fractions were combined, dialyzed against 1 L buffer A and concentrated at 4° C. to 8 mg/mL using an Amicon concentrator and then stored at −80° C.

PTP1B = PTP1B (Homo sapiens (Human), UniProt P18031); assay: pNPP hydrolysis enzyme assay, PTP1B; type: biochemical
Description: as §1

Chain of PTP-MEG2 (P43378 277-582): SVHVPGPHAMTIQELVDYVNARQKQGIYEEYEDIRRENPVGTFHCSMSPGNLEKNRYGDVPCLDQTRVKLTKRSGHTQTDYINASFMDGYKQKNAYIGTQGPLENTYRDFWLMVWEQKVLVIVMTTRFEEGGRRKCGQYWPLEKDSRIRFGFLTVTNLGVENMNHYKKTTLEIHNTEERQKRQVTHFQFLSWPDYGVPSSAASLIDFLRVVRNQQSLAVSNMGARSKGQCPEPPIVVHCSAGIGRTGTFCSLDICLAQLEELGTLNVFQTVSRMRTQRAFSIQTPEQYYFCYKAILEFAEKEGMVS
Chain of PTP1B (P18031 whole entry, species assumed): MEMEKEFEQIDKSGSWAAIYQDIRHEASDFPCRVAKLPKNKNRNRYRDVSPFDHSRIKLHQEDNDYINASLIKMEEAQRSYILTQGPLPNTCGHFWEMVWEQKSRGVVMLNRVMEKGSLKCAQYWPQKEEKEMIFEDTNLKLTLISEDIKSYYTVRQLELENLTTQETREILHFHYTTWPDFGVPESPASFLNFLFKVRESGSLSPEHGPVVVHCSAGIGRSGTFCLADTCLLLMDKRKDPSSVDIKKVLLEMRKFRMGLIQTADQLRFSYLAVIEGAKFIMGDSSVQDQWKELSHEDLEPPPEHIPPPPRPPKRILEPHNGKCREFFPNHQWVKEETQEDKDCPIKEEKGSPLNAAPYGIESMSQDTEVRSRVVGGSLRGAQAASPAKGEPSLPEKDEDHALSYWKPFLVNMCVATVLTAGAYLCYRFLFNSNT

With `CC(=O)NC(Cc1ccc(C(F)(F)P(=O)(O)O)cc1)C(=O)NC(CCCNC(=O)c1cccc(I)c1)C(N)=O` (centres unmarked) [Compound 3] the IC50 (PTP-MEG2) was 0.9 ± 0.02 µM.

`Cc1ccc(C(=O)NC(Cc2ccc(C(F)(F)P(=O)(O)O)cc2)C(=O)NC(CCCNC(=O)c2cccc(I)c2)C(N)=O)cc1Br` (centres unmarked) [Compound 5] was tested, and the “improvement in potency / binding affinity for PTP-MEG2 over the preceding lead” value (PTP-MEG2; Compound 5 vs Compound 3, Compound 7 vs Compound 5) was 3.3 fold, the IC50 (PTP-MEG2) was 0.27 ± 0.07 µM and the IC50 (PTP1B; pNPP substrate) was 3.4 ± 0.08 µM. The “selectivity for PTP-MEG2 over PTP1B” value (PTP1B; ratio of IC50 values) was 12.6 fold.
